± gives the standard deviation of the averaged measurements.
Key:
Conditions in all cases: 72 h
Caco-2 [1] = assay: relative viability EC50 (midpoint between 100% and the lowest measured viability); higher = less toxic
Vero E6 [2] = assay: as above
HepG2 [3] = assay: as above
Calu-3 [4] = assay: as above
U2OS [5] = assay: as above
Caco-2 [6] = assay: cell viability relative to DMSO; higher = less toxic
Vero E6 [7] = assay: as above
HepG2 [8] = assay: as above
Calu-3 [9] = assay: as above
U2OS [10] = assay: as above
Caco-2 [11] = assay: drug sensitivity score (DSS) for viability; higher = more toxic; extreme values may be limits of the assay
Vero E6 [12] = assay: as above
HepG2 [13] = assay: as above
Calu-3 [14] = assay: as above
U2OS [15] = assay: as above

Compound | relative viability EC50 (Caco-2 [1]) [µM] | relative viability EC50 (Vero E6 [2]) [µM] | relative viability EC50 (HepG2 [3]) [µM] | relative viability EC50 (Calu-3 [4]) [µM] | relative viability EC50 (U2OS [5]) [µM] | cell viability (Caco-2 [6]; 1 nM) [%] | cell viability (Caco-2 [6]; 10 nM) [%] | cell viability (Caco-2 [6]; 100 nM) [%] | cell viability (Caco-2 [6]; 1000 nM) [%] | cell viability (Caco-2 [6]; 10000 nM) [%] | cell viability (Vero E6 [7]; 1 nM) [%] | cell viability (Vero E6 [7]; 10 nM) [%] | cell viability (Vero E6 [7]; 100 nM) [%] | cell viability (Vero E6 [7]; 1000 nM) [%] | cell viability (Vero E6 [7]; 10000 nM) [%] | cell viability (HepG2 [8]; 1 nM) [%] | cell viability (HepG2 [8]; 10 nM) [%] | cell viability (HepG2 [8]; 100 nM) [%] | cell viability (HepG2 [8]; 1000 nM) [%] | cell viability (HepG2 [8]; 10000 nM) [%] | cell viability (Calu-3 [9]; 1 nM) [%] | cell viability (Calu-3 [9]; 10 nM) [%] | cell viability (Calu-3 [9]; 100 nM) [%] | cell viability (Calu-3 [9]; 1000 nM) [%] | cell viability (Calu-3 [9]; 10000 nM) [%] | cell viability (U2OS [10]; 1 nM) [%] | cell viability (U2OS [10]; 10 nM) [%] | cell viability (U2OS [10]; 100 nM) [%] | cell viability (U2OS [10]; 1000 nM) [%] | cell viability (U2OS [10]; 10000 nM) [%] | drug sensitivity score (Caco-2 [11]) | drug sensitivity score (Vero E6 [12]) | drug sensitivity score (HepG2 [13]) | drug sensitivity score (Calu-3 [14]) | drug sensitivity score (U2OS [15])
O=C(c1ccc(F)cc1)N1CCC[C@H](c2nc(-c3ccc(F)cc3)no2)C1 | > 10 | > 10 | > 10 | > 10 | > 10 | 101 | 94.3 | 91.8 | 99.7 | 87.9 | 98.3 | 93.5 | 94.7 | 93.9 | 95.5 | 93.7 | 99.4 | 93 | 96 | 91.1 | 90 | 100 | 85.3 | 98.2 | 75.5 | 94 | 101 | 99.9 | 98.8 | 91.7 | 0 | 0 | 0 | 1.2 | 0
O=C1C(=C(O)/C=C/c2ccc(O)cc2)C(=O)[C@@](O)([C@@H]2O[C@H](CO)[C@@H](O)[C@H](O)[C@H]2O)C(=O)[C@H]1[C@@H]1O[C@H](CO)[C@@H](O)[C@H](O)[C@H]1O | > 10 | > 10 | > 10 | > 10 | > 10 | 102 | 91.2 | 93.1 | 93.3 | 95.8 | 101 | 98.1 | 98.5 | 95.8 | 98.5 | 102 | 97.2 | 104 | 102 | 106 | 103 | 97.6 | 102 | 101 | 97.9 | 101 | 97.8 | 95 | 99.3 | 98.6 | 0 | 0 | 0 | 0 | 0
c1ccc(CN2CCC3(CCc4ccccc43)CC2)cc1 | > 10 | > 10 | > 10 | > 10 | > 10 | 96.9 | 97.5 | 99 | 93 | 89.6 | 97.1 | 97 | 92.8 | 94.4 | 104 | 95.1 | 101 | 91.9 | 106 | 102 | 99.6 | 98.5 | 108 | 95.4 | 96.5 | 102 | 102 | 101 | 99.6 | 99.6 | 0 | 0 | 0 | 0 | 0
N[C@@H](C(=O)O)c1ccc(C(=O)O)c(C(=O)O)c1 (racemic) [3,4-DCPG-(+/-)] | > 10 | > 10 | > 10 | > 10 | > 10 | 101 ± 5.2 | 94.9 ± 2.8 | 103 ± 3.2 | 96.6 ± 9.6 | 97.4 ± 2.9 | 96.8 ± 6 | 101 ± 3.4 | 96 ± 2.5 | 100 ± 3.2 | 105 ± 4.1 | 88.3 ± 15 | 99.2 ± 3.1 | 89.5 ± 20 | 102 ± 6.3 | 97.7 ± 20 | 93.4 ± 4.4 | 99.8 ± 2.7 | 95.7 ± 3.2 | 93 ± 1.3 | 95.3 ± 1.3 | 99.5 ± 2.4 | 95.4 ± 0.42 | 103 | 97.6 ± 3.8 | 100 ± 3.4 | 0 | 0 | 0 | 0 | 0
O[C@@H](CN1CCC(Cc2ccc(F)cc2)CC1)c1ccc(Cl)cc1 (racemic) [eliprodil] | > 10 | > 10 | > 10 | > 10 | > 10 | 100 | 96.2 | 101 | 103 | 104 | 98.8 | 92 | 98.8 | 98.1 | 105 | 96.6 | 99.7 | 97.8 | 87.6 | 108 | 99.2 | 95.2 | 106 | 92.3 | 104 | 91.1 | 93.3 | 87.3 | 87.9 | 97.6 | 0 | 0 | 0 | 0 | 0
CCCN1CCCC(c2cccc(O)c2)C1 (stereo in doubt) [preclamol] | > 10 | > 10 | > 10 | > 10 | > 10 | 107 | 94.9 | 106 | 93.1 | 99.6 | 90.5 | 99.2 | 95.1 | 98.3 | 91.8 | 95.6 | 110 | 107 | 112 | 99.6 | 110 | 110 | 112 | 93.5 | 99.6 | 102 | 103 | 102 | 99.1 | 101 | 0 | 0 | 0 | 0 | 0
C[N+]1(C)CCC(OC(=O)C(c2ccccc2)c2ccccc2)CC1 [4-DAMP] | > 10 | > 10 | > 10 | > 10 | > 10 | 105 | 96.3 | 106 | 102 | 87.4 | 98.5 | 99.8 | 99 | 97.4 | 96 | 90.8 | 97 | 103 | 100 | 90.9 | 85.8 | 87.6 | 92.9 | 101 | 100 | 103 | 97.7 | 99.2 | 97.7 | 99.5 | 0 | 0 | 0 | 0 | 0
NCC(=O)CCC(=O)O [5-aminolevulinic-acid] | > 10 | > 10 | > 10 | > 10 | > 10 | 100 | 103 | 98.9 | 86.2 | 94 | 93.7 | 94 | 91.7 | 91.3 | 97.8 | 91.4 | 99 | 92.1 | 104 | 104 | 96.9 | 104 | 105 | 104 | 104 | 104 | 96.9 | 99 | 94.6 | 95.3 | 1.1 | 0 | 0 | 0 | 0
CCCCCCCCC(=O)NCc1cc(OC)c(O)cc1I [6-iodo-nordihydrocapsaicin] | > 10 | > 10 | > 10 | > 10 | > 10 | 97.9 | 101 | 103 | 97.7 | 88.6 | 88.5 | 99.4 | 92.2 | 92.5 | 104 | 96.6 | 110 | 95.6 | 104 | 103 | 104 | 98.6 | 108 | 109 | 104 | 97.4 | 98 | 101 | 96.6 | 92.5 | 0.1 | 0 | 0 | 0 | 0
CCN(CC)C(=O)c1ccc(C2=CC3(CCNCC3)Oc3cccc(O)c32)cc1 [ADL5859] | > 10 | > 10 | > 10 | > 10 | > 10 | 93 | 99.8 | 91.9 | 97.3 | 110 | 94.1 | 104 | 94.9 | 98.5 | 108 | 103 | 99.5 | 104 | 100 | 101 | 92.9 | 96.9 | 91.8 | 105 | 105 | 95.4 | 98.2 | 100 | 103 | 104 | 0 | 0 | 0 | 0 | 0
Oc1c(I)cc(I)cc1I [AM-24] | > 10 | > 10 | > 10 | > 10 | > 10 | 99.5 | 97.6 | 93 | 88.5 | 101 | 96.8 | 103 | 99.6 | 104 | 97.2 | 95.4 | 103 | 89.9 | 108 | 102 | 96.7 | 95 | 104 | 97.3 | 101 | 97.8 | 97.8 | 103 | 97.7 | 104 | 0 | 0 | 0 | 0 | 0
O=C(Nc1ccc2c(O)cc(S(=O)(=O)O)cc2c1)Nc1ccc2c(O)cc(S(=O)(=O)O)cc2c1 [AMI-1] | > 10 | > 10 | > 10 | > 10 | > 10 | 87 | 97.8 | 92.8 | 93.5 | 97.2 | 97.2 | 102 | 102 | 106 | 96 | 101 | 110 | 106 | 107 | 94.3 | 104 | 100 | 100 | 109 | 99.8 | 103 | 102 | 99 | 102 | 101 | 0 | 0 | 0 | 0 | 0
C[C@@]1(CO)[C@H](O)CC[C@@]2(C)[C@H]1CC[C@H]1C[C@@H]3C[C@@]12CC[C@]3(O)CO [aphidicolin] |  | 2.02 | 0.608 | > 10 | > 10 | 100 | 100 | 80 | 79.2 | 72 | 106 | 109 | 100 | 90.7 | 35.8 | 100 | 100 | 91.3 | 50.5 | 22.5 | 111 | 100 | 110 | 87.3 | 77.7 | 106 | 104 | 101 | 98.7 | 79.4 | 6.8 | 5.1 | 10.6 | 2.1 | 0.8
CCCc1cc(C(N)=S)ccn1 [protionamide] |  | > 10 | > 10 | > 10 | > 10 | 94.4 | 80.4 | 93.8 | 73.7 | 68.3 | 102 | 98.6 | 93.3 | 101 | 91.6 | 108 | 105 | 95.9 | 103 | 95.3 | 96.2 | 100 | 88.9 | 107 | 92.4 | 104 | 107 | 98.6 | 96 | 96.4 | 5.7 | 0 | 0 | 0 | 0
OC(CCN1CCCCC1)(c1ccccc1)C1CCCCC1 (configuration not stated) [trihexyphenidyl] |  | > 10 | > 10 | > 10 | > 10 | 101 | 100 | 95.5 | 94.6 | 74.7 | 103 | 106 | 112 | 98.9 | 83.1 | 101 | 87.7 | 100 | 93.2 | 83.4 | 102 | 98.9 | 96.7 | 90.7 | 85.6 | 96.9 | 103 | 101 | 98.1 | 97.8 | 1.7 | 0.5 | 0.3 | 0.5 | 0

Source: the supplement of paper PMC13380429
